The target in the data set is ATP-dependent translocase ABCB1 (Homo sapiens, UniProt P08183). Nature of the data set: TP_TRANSPORTER: transepithelial transport in LLC-GA5-COL150 cells. Format: functional, cell-based. As to conditions: pig.

Each structure is given as a SMILES string.

Sequence of ATP-dependent translocase ABCB1 (P08183 whole entry): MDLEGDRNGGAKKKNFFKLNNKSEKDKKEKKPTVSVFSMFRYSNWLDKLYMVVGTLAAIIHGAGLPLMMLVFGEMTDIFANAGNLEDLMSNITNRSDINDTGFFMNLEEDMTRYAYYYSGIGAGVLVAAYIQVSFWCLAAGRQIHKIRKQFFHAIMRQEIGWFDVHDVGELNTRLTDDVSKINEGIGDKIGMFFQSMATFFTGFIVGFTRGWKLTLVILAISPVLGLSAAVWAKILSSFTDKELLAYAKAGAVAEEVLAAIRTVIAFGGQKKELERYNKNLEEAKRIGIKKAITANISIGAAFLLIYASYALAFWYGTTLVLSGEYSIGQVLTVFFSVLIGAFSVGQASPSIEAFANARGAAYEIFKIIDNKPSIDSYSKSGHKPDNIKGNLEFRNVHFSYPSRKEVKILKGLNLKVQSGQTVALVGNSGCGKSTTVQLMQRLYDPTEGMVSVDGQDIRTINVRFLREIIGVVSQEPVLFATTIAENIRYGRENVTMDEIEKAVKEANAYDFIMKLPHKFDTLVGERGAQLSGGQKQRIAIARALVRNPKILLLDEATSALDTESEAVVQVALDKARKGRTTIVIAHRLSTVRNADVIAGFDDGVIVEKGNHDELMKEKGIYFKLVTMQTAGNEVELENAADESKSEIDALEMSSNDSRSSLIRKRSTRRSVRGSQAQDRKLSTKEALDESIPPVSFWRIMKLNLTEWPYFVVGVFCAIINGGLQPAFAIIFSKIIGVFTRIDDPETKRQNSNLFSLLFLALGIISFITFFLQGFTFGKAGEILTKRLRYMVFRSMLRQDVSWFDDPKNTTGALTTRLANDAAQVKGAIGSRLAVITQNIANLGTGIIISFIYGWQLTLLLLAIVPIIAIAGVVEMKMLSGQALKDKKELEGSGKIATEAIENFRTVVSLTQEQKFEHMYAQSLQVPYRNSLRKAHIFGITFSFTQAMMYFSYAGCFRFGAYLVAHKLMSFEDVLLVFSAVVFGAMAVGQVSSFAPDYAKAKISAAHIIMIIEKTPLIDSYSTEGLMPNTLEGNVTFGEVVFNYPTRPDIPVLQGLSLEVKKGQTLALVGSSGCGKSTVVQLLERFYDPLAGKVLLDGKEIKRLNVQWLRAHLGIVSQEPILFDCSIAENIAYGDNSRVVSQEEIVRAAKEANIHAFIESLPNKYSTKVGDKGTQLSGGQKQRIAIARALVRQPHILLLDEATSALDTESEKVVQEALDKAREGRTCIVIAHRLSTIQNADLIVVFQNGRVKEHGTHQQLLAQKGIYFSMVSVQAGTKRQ

Take `CS(=O)(=O)O.N=C(N)Nc1ccc(C(=O)Oc2ccc3cc(C(=N)N)ccc3c2)cc1`: the Activity result is “is not a substrate [-]”.

Values taken from ChEMBL document CHEMBL2074400, “Transporter-mediated renal handling of nafamostat mesilate” (J Pharm Sci, 2004).
